In the assay the target is T1, human PAR4 (Homo sapiens, UniProt Q96RI0).
T1 construct: expressed in transfected cells; host or cells: HEK293 PAR4 Clone 1.2A (BMS Arctic ID 383940)
T1 sequence (Q96RI0 18-385): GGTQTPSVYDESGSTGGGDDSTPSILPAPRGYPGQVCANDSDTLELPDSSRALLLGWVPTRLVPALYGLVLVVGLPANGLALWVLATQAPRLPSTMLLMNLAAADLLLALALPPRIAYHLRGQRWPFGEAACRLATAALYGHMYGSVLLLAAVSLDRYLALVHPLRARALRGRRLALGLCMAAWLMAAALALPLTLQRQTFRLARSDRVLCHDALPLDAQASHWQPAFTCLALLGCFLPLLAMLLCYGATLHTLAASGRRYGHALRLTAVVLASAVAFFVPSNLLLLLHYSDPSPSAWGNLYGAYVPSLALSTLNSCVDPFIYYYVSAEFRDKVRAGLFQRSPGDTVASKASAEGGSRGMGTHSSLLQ
Description: PAR4 FLIPR assay: antagonism of agonist-peptide-induced calcium mobilization in PAR4-expressing HEK293 cells. The note with it: H-Ala-Phe(4-F)-[…]NH2-induced intracellular calcium mobilization, 11-point curves. The assay is classed as cell-based. In general terms: A change in cytosolic calcium serves as a functional read-out for many receptors and channels.
Turning to `CCOc1cnc2c(-c3nc4cc(F)c(O[C@@H](C)[C@@H](C)OC(=O)Nc5cnc([C@H](C)O)nc5)cc4s3)cc(C)cc2n1` [Example 535, (2R,3S)-3-((2-(2-ethoxy-7-methylquinoxalin-5-yl)-5-fluorobenzo[d]thiazol-6-yl)oxy)butan-2-yl (2-((S)-1-hydroxyethyl)pyrimidin-5-yl)carbamate], the IC50 (in general, the point on the concentration scale where inhibition reaches its midpoint) came out at 5.2 nM.
On to `CCOc1cnc2c(-c3nc4cc(F)c(O[C@@H](C)[C@@H](C)OC(=O)Nc5cnc([C@@H](C)O)nc5)cc4s3)cc(C)cc2n1` [Example 536, (2R,3S)-3-((2-(2-ethoxy-7-methylquinoxalin-5-yl)-5-fluorobenzo[d]thiazol-6-yl)oxy) butan-2-yl (2-((R)-1-hydroxyethyl)pyrimidin-5-yl)carbamate], for which the IC50 amounted to 4.9 nM.
Next, `COc1cnc2c(-c3nc4cc(F)c(O[C@@H](C)[C@@H](C)OC(=O)Nc5cnc(CO)nc5)cc4s3)cc(Cl)cc2c1` [Example 539, (2R,3S)-3-((2-(6-chloro-3-methoxyquinolin-8-yl)-5-fluorobenzo[d]thiazol-6-yl)oxy)butan-2-yl (2-(hydroxymethyl)pyrimidin-5-yl)carbamate]: 6.5 nM.
With `COc1cnc2c(-c3nc4cc(F)c(O[C@@H](C)[C@@H](C)OC(=O)Nc5cnc(OC[C@@H](C)O)nc5)cc4s3)cc(Cl)cc2c1` [Example 540, (2R,3S)-3-((2-(6-chloro-3-methoxyquinolin-8-yl)-5-fluorobenzo[d]thiazol-6-yl)oxy)butan-2-yl (2-((R)-2-hydroxypropoxy)pyrimidin-5-yl)carbamate], the IC50 amounted to 3 nM.
For `COc1cnc2c(-c3nc4cc(F)c(O[C@@H](C)[C@@H](C)OC(=O)Nc5cnc(OC[C@H](C)O)nc5)cc4s3)cc(Cl)cc2c1` [Example 541, (2R,3S)-3-((2-(6-chloro-3-methoxyquinolin-8-yl)-5-fluorobenzo[d]thiazol-6-yl)oxy)butan-2-yl (2-((S)-2-hydroxypropoxy)pyrimidin-5-yl)carbamate], the IC50 was 3.4 nM.
Next, `COc1cnc2c(-c3nc4c(Cl)c(F)c(OC[C@@H](C)OC(=O)Nc5ccc(CCO)nc5)cc4s3)cc(C)cc2n1` [Example 542, (R)-1-((4-chloro-5-fluoro-2-(2-methoxy-7-methylquinoxalin-5-yl)benzo[d]thiazol-6-yl)oxy)propan-2-yl (6-(2-hydroxyethyl)pyridin-3-yl)carbamate]: 1.6 nM; `COc1cnc2c(-c3nc4cc(F)c(OC[C@@H](C)OC(=O)Nc5ccc(CCO)nc5)cc4s3)cc(C)cc2n1` [Example 543, (R)-1-((5-fluoro-2-(2-methoxy-7-methylquinoxalin-5-yl)benzo[d]thiazol-6-yl)oxy)propan-2-yl (6-(2-hydroxyethyl)pyridin-3-yl)carbamate]: 1.3 nM; `COc1cnc2c(-c3nc4cc(F)c(OC[C@@H](C)OC(=O)Nc5cnc(C)c(CO)c5)cc4s3)cc(C)cc2n1` [Example 544, (R)-1-((5-fluoro-2-(2-methoxy-7-methylquinoxalin-5-yl)benzo[d]thiazol-6-yl)oxy)propan-2-yl (5-(hydroxymethyl)-6-methylpyridin-3-yl)carbamate]: 34 nM.
Take `COc1cnc2c(-c3nc4cc(F)c(OC[C@@H](C)OC(=O)Nc5ccnc(CCO)c5)cc4s3)cc(C)cc2n1` [Example 545, (R)-1-((5-fluoro-2-(2-methoxy-7-methylquinoxalin-5-yl)benzo[d]thiazol-6-yl)oxy)propan-2-yl (2-(2-hydroxyethyl)pyridin-4-yl)carbamate]: the IC50 is 1.5 nM.
Turning to `COc1cnc2c(-c3nc4cc(F)c(OC[C@@H](C)OC(=O)Nc5ccc(CO)nc5)cc4s3)cc(C)cc2n1` [Example 546, (R)-1-((5-fluoro-2-(2-methoxy-7-methylquinoxalin-5-yl)benzo[d]thiazol-6-yl)oxy)propan-2-yl (6-(hydroxymethyl)pyridin-3-yl)carbamate], the half-maximal inhibitory concentration (IC50) was 14 nM.
Regarding `COc1cnc2c(-c3nc4cc(F)c(O[C@@H](C)[C@@H](C)OC(=O)Nc5ccnc(CCO)c5)cc4s3)cc(C)cc2n1` [Example 547, (2R,3S)-3-((5-fluoro-2-(2-methoxy-7-methylquinoxalin-5-yl)benzo[d]thiazol-6-yl)oxy)butan-2-yl (2-(2-hydroxyethyl)pyridin-4-yl)carbamate], the 50% inhibitory concentration (IC50) was 5.2 nM.
As to `COc1cnc2c(-c3nc4cc(F)c(O[C@@H](C)[C@@H](C)OC(=O)Nc5ccnc(O[C@H](C)CO)c5)cc4s3)cc(C)cc2n1` [Example 549, (2R,3S)-3-((5-fluoro-2-(2-methoxy-7-methylquinoxalin-5-yl)benzo[d]thiazol-6-yl)oxy)butan-2-yl (2-(((R)-1-hydroxypropan-2-yl)oxy)pyridin-4-yl)carbamate], the IC50 stood at 1 nM.
For the molecule `COc1cnc2c(-c3nc4cc(F)c(O[C@@H](C)[C@@H](C)OC(=O)Nc5ccnc(OC[C@@H](C)O)c5)cc4s3)cc(C)cc2n1` [Example 550, (2R,3S)-3-((5-fluoro-2-(2-methoxy-7-methylquinoxalin-5-yl)benzo[d]thiazol-6-yl)oxy)butan-2-yl (2-((R)-2-hydroxypropoxy)pyridin-4-yl)carbamate], the half-maximal inhibitory concentration (IC50) was 0.4 nM.
As to `COc1cnc2c(-c3nc4cc(F)c(OC[C@@H](C)OC(=O)Nc5ccnc(OCCO)c5)cc4s3)cc(C)cc2n1` [Example 552, (R)-1-((5-fluoro-2-(2-methoxy-7-methylquinoxalin-5-yl)benzo[d]thiazol-6-yl)oxy)propan-2-yl (2-(2-hydroxyethoxy)pyridin-4-yl)carbamate], the half-inhibitory concentration (IC50) stood at 0.7 nM.
With `COc1cnc2c(-c3nc4cc(F)c(OC[C@@H](C)OC(=O)Nc5cnc(O[C@H](C)CO)nc5)cc4s3)cc(C)cc2n1` [Example 553, (R)-1-((5-fluoro-2-(2-methoxy-7-methylquinoxalin-5-yl)benzo[d]thiazol-6-yl)oxy)propan-2-yl (2-(((R)-1-hydroxypropan-2-yl)oxy)pyrimidin-5-yl)carbamate], the IC50 turned out to be 1.2 nM.
With `COc1cnc2c(-c3nc4cc(F)c(O[C@@H](C)[C@@H](C)OC(=O)Nc5cnc(O[C@H](C)CO)nc5)cc4s3)cc(C)cc2n1` [Example 554, (2R,3S)-3-((5-fluoro-2-(2-methoxy-7-methylquinoxalin-5-yl)benzo[d]thiazol-6-yl)oxy)butan-2-yl (2-(((R)-1-hydroxypropan-2-yl)oxy)pyrimidin-5-yl)carbamate], the IC50 amounted to 0.7 nM.
Under `COc1cnc2c(-c3nc4cc(F)c(OC[C@@H](C)OC(=O)Nc5cnc(OCCO)nc5)cc4s3)cc(C)cc2n1` [Example 555, (R)-1-((5-fluoro-2-(2-methoxy-7-methylquinoxalin-5-yl)benzo[d]thiazol-6-yl)oxy)propan-2-yl (2-(2-hydroxyethoxy)pyrimidin-5-yl)carbamate] stands 1.1 nM; under `COc1cnc2c(-c3nc4cc(F)c(O[C@@H](C)[C@@H](C)OC(=O)Nc5cnc(OCCO)nc5)cc4s3)cc(C)cc2n1` [Example 556, (2R,3S)-3-((5-fluoro-2-(2-methoxy-7-methylquinoxalin-5-yl)benzo[d]thiazol-6-yl)oxy)butan-2-yl (2-(2-hydroxyethoxy)pyrimidin-5-yl)carbamate], 0.7 nM; under `COc1cnc2c(-c3nc4cc(F)c(OC[C@@H](C)OC(=O)Nc5ccc(CC(C)(C)O)nc5)cc4s3)cc(C)cc2n1` [Example 557, (R)-1-((5-fluoro-2-(2-methoxy-7-methylquinoxalin-5-yl)benzo[d]thiazol-6-yl)oxy)propan-2-yl (6-(2-hydroxy-2-methylpropyl)pyridin-3-yl)carbamate], 0.7 nM.
On to `COc1cnc2c(-c3nc4cc(F)c(OC[C@@H](C)OC(=O)Nc5cnc(O[C@@H](C)CO)nc5)cc4s3)cc(C)cc2n1` [Example 558, (R)-1-((5-fluoro-2-(2-methoxy-7-methylquinoxalin-5-yl)benzo[d]thiazol-6-yl)oxy)propan-2-yl (2-(((S)-1-hydroxypropan-2-yl)oxy)pyrimidin-5-yl)carbamate], for which the IC50 amounted to 1.5 nM.
As to `COc1cnc2c(-c3nc4cc(F)c(O[C@@H](C)[C@@H](C)OC(=O)Nc5ccc(CC(C)(C)O)nc5)cc4s3)cc(C)cc2n1` [Example 559, (2R,3S)-3-((5-fluoro-2-(2-methoxy-7-methylquinoxalin-5-yl)benzo[d]thiazol-6-yl)oxy)butan-2-yl (6-(2-hydroxy-2-methylpropyl)pyridin-3-yl)carbamate], the concentration for half-maximal inhibition (IC50) turned out to be 0.9 nM.
On to `COc1cnc2c(-c3nc4cc(F)c(O[C@@H](C)[C@@H](C)OC(=O)Nc5cnc(O[C@@H](C)CO)nc5)cc4s3)cc(C)cc2n1` [Example 560, (2R,3S)-3-((5-fluoro-2-(2-methoxy-7-methylquinoxalin-5-yl)benzo[d]thiazol-6-yl)oxy)butan-2-yl (2-(((S)-1-hydroxypropan-2-yl)oxy)pyrimidin-5-yl)carbamate], for which the IC50 came out at 1.4 nM.
Under `COc1cnc2c(-c3nc4cc(F)c(O[C@@H](C)[C@@H](C)OC(=O)Nc5ccnc(CC(C)(C)O)c5)cc4s3)cc(C)cc2n1` [Example 561, (2R,3S)-3-((5-fluoro-2-(2-methoxy-7-methylquinoxalin-5-yl)benzo[d]thiazol-6-yl)oxy)butan-2-yl (2-(2-hydroxy-2-methylpropyl)pyridin-4-yl)carbamate] stands 53 nM; under `COc1cnc2c(-c3nc4cc(F)c(O[C@@H](C)[C@@H](C)OC(=O)Nc5ccnc(OCC(C)(C)O)c5)cc4s3)cc(C)cc2n1` [Example 562, (2R,3S)-3-((5-fluoro-2-(2-methoxy-7-methylquinoxalin-5-yl)benzo[d]thiazol-6-yl)oxy)butan-2-yl (2-(2-hydroxy-2-methylpropoxy)pyridin-4-yl)carbamate], 1.6 nM.
